{"source": "patent US12514909B2", "about": "“Lactate-protected hypoglycemia to treat glycolysis dependent pathological conditions, in particular cancer” (priority 2018, dated 2026)", "key": {"[1]": {"test": "Lactate-protected hypoglycemia (HG-HL) in anesthetized pig with extracorporeal HLa infusion", "type": "in vivo", "method": "Then, after hyperlactatemia was established, an insulin bolus and continuous infusion of insulin were titrated to achieve a [Glu] of between 1.3 and 1.7 mmol/L (25 to 30 mg/dL). Once the HG (1.5 mmol/L) HL(8 mmol/L) state was achieved, this was maintained for 4 h. Then normoglycemia was allowed to return.\nThis example entails achievement and sustaining [Glu] at ˜1.5 mmol/L for 4 hours in a pig under a [Lac] of 8 mmol/L.\nThe preparation started the day before the intervention at 17:00. No food was given to the pig after this time.\nOn the morning of the intervention the pig ate a small fatty snack combined with 500 mg of metformin. The inhibitory action of metformin on gluconeogenesis is expected to start within 3 h.\nA bolus of 0.03 mg/kg medetomidine, a bolus of 4 mg/kg tiletamine-zolazepam and a bolus of 2 to 2.5 mg/kg 1% propofol were delivered intravenously. After intubation, volume-controlled ventilation was started. The respiratory rate was adjusted to target etCO2of 35 to 45 mmHg and a tidal volume of 8 to 10 ml/kg. The tidal volume was later adjusted when required on etCO2, pCO2 and pH. Then a 2-lumen dialysis catheter was surgically placed into the internal jugular vein. An unfractionated heparin bolus of 5000 IU (200 IU/kg) was administered and CVVH was initiated with unfractionated heparin (400 IU/ml) at 1 ml/h, titrated to an activated clotting time (ACT) of 250 to 300 seconds.\nCounter-response inhibition was achieved by subsequent intravenous delivery of labetalol (5 mg/ml) at 3 ml/h titrated to a relative heart rate reduction of 10/m, and an intravenous bolus of 25 μg octreotide (10 μg/ml), then the octreotide continuous infusion was proportionally adjusted to keep [Glu] in the desired hypoglycemic range.\nDepending on the subsequent [Glu], insulin infusion rates were varied between 0 to 60 U/h. If necessary, an additional bolus dose of insulin was given at least 30 minutes after the initial delivery using the same criteria as described before.\nOnce both a [Glu] of 1.3 to 1.7 and a [Lac] of 8 to 10 mmol/L was reached, this HG(1.5)HL(8) state was maintained for 4 hours using the clamping technique. Approximately halfway during the HG(1.5)HL(8)-phase the octreotide infusion was stopped as the T1/2 of octreotide is longer than T^1/2 of insulin and because sustained suppression of the hypoglycemic counter response by octreotide might prolong the duration of glucose 50% support during the normoglycemia restoration phase.\nDuring the HG-HL phase, sliding scale adjustments of insulin and glucose 50% pumps were executed.\nThe glucose 50% infusion rate was adjusted and eventually tapered to zero until stable normoglycemia was achieved."}, "[2]": {"details": "cited from earlier work"}}}
{"smiles": "CC(O)C(=O)O", "note": "(centres unmarked) [HLa, lactic acid]", "values": [{"measurement": "arterial pH and sodium levels throughout the experiment", "setting": "[1]; 30 kg pig, 40% HLa via veno-venous extracorporeal circuit, [Lac] 8 mmol/L, [Glu] ~1.5 mmol/L for 4 h, with insulin, glucose 50%, octreotide, labetalol, metformin", "result": "maintained within the desired range"}, {"measurement": "hemodynamic instabilities, electrocardiographic or rhythm disturbances", "setting": "[1]; 30 kg pig, HG(1.5)HL(8) state for 4 h", "result": "no hemodynamic instabilities, electrocardiographic or rhythm disturbances were observed"}, {"measurement": "time after end of the HG-HL-phase until normoglycemia without exogenous glucose or lactate support", "setting": "[1]; 30 kg pig, after 4 h HG(1.5)HL(8)", "result": 90, "unit": "min"}, {"measurement": "metabolic alkalosis or hypernatremia on administration of high doses", "setting": "[1]; high doses of HLa instead of NaLa", "result": "did not lead to metabolic alkalosis or hypernatremia"}]}
{"smiles": "CC(O)C(=O)[O-].[Na+]", "note": "(centres unmarked) [sodium lactate]", "values": [{"measurement": "side effects of intravenous administration of large amounts", "setting": "[2]", "result": "systemic metabolic alkalosis and hypernatremia"}]}
